Each block holds one molecule with its values, some of them ahead of it. Oligonucleotides are written 5' to 3', each unit as a sugar letter and its base; * is a phosphorothioate linkage, no mark a phosphodiester; rarer units and linkages stand in square brackets, end groups in braces. Plain capitals give the bases only. {ppp} = triphosphate group; {Biotin} = biotin label U; r = 2'-OH (RNA)
Legend:
human primary monocytes = assay: IFN-α production in human primary monocytes transfected with RNA (ELISA); type: cell-based; conditions: for IFN-α production in monocytes: 200 ng RNA transfected, 24 hours, ELISA
RIG-I [1] = target: T1, RIG-I (Homo sapiens, UniProt O95786); assay: pIFN-beta-Luc reporter assay in HEK 293 cells transfected with RIG-I; type: cell-based; set-up: Only HEK 293 cells expressing full length RIG-I responded to 5′triphosphate RNA; FLAG; expressed in transfected cells; host or cells: HEK 293; conditions: HEK 293 cells expressing full length RIG-I, 200 ng, 24 hours
T1 sequence (O95786 1-925): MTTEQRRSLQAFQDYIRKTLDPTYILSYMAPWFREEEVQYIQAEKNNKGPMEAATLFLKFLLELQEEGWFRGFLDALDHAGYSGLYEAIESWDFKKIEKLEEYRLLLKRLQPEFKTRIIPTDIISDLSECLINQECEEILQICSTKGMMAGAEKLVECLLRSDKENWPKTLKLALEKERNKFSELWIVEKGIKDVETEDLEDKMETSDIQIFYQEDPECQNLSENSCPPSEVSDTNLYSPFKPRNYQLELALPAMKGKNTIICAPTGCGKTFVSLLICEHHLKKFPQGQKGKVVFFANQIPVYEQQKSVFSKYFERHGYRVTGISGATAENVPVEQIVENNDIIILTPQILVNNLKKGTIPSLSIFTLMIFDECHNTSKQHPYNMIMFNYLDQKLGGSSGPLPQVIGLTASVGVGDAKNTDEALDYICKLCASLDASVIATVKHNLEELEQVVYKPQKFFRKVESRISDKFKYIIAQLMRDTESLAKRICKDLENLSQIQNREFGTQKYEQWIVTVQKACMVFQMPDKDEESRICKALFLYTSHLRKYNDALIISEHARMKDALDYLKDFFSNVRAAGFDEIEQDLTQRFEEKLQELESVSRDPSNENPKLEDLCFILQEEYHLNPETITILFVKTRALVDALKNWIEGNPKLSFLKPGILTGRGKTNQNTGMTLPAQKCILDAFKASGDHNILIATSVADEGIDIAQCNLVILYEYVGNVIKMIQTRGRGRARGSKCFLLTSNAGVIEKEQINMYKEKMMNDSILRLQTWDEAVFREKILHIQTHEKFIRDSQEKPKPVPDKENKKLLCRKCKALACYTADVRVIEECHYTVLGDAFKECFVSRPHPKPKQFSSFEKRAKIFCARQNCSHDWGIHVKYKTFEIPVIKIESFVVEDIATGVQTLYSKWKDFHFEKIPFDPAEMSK

RIG-I [2] = assay: Ligand binding studies: pull-down of RIG-I by biotinylated RNA; conditions: CARD2 and RIG-I Δ Helicase_C
Method: (§1) Cell lysates were prepared according to Meister et al. (G. Meister et al., Mol Cell 15, 185 (Jul. 23, 2004)) with minor modifications. HEK 293 cells were transfected using high molecular weight (25 kDa) polyethylenimine (PEI; Sigma, 40.872-7). At a confluency of 80-90%, cells were transfected with a PEI:DNA ratio of 1.5:1. 24-36 hours after transfection cells were harvested and the cell pellet was resuspended in five pellet volumes of 10 mM KCl, 1.5 mM MgCl2, 0.5 mM dithiothreitol, 10 mM HEPES-NaOH (pH 7.9), 0.5 mM PMSF and incubated for ten minutes on ice. Subsequently cells were washed and the cell pellet was resuspended in two pellet volumes of the buffer described above and homogenized by douncing. The cell nuclei were removed from the cell lysate by centrifugation at 2.000 g for ten minutes. The supernatant was transferred into microcentrifuge tubes and cleared further by centrifugation at 2.000 g for ten minutes and further centrifugation for 30 minutes at 20.000 g to obtain the cytoplasmic extract. The concentration of KCl of the extract was subsequently raised to 100 mM by addition of 2 M KCl and glycerol was added to a percentage of 10%. For purification of FLAG-tagged RIG-IC complexes, cytoplasmic extracts were incubated in FLAG M2 agarose beads (Sigma). FLAG M2 agarose beads were washed once with 0.1 M glycine (pH 3.5) and equilibrated by washing with 1 M Tris-HCl (pH 8.0). […]

RIG-I [3] = target: T1, RIG-I; assay: as above; set-up: HEK 293 cells were transiently transfected with full length RIG-I, RIG-I CARD2 or RIG-I ΔHELIc; expressed in transfected cells; host or cells: HEK 293 (whole cell lysate); conditions: whole cell lysate of HEK 293 cells overexpressing full length RIG-I
Method: as §1

Caspase-1 = Caspase-1 activation in B16 cells (western blot); type: cell-based, murine; conditions: 24 hours
Method: (e) B16 cells were incubated with control siRNA, 3p-2.2 and poly(I:C) for 24 hours and assessed for caspase-1 activity via immunoblotting. α-Tublin served as loading control. One representative experiment of three is shown.
(§2) For Western blotting, samples were separated by SDS-PAGE and transferred to a nitrocellulose membrane (Amersham-Biosciences, UK) by semi-dry electroblotting. As primary antibody polyclonal rat anti-RIG-I (kind gift of Dr. Kremer), polyclonal rabbit anti-Bcl-2 (Santa Cruz, sc-7382) and rabbit anti-caspase-1 (Santa Cruz, sc-7148) antibody were used. As secondary antibody, peroxidase-conjugated anti-mouse or anti-rabbit antibody (Amersham-Biosciences) were used. Bound antibodies were visualized by enhanced chemiluminescence system (ECL) according to the manufacturer's protocol (Amersham-Biosciences).

PDC = assay: IFN-α production in human PDC (ELISA); type: cell-based; conditions: 24 hours
Method: Human PBMC were prepared from whole blood donated by young healthy donors by Ficoll-Hypaque density gradient centrifugation (Biochrom, Berlin, Germany). PDC were isolated by MACS using the blood dendritic cell Ag (BCDA)-4 dendritic cell isolation kit from Miltenyi Biotec (Bergisch-Gladbach, Germany). Briefly, PDC were labelled with anti-BDCA-4 Ab coupled to colloidal paramagnetic microbeads and passed through a magnetic separation column twice (LS column, then MS column; Miltenyi Biotec). The purity of isolated PDC (lineage-negative, MHC-II-positive and CD123-positive cells) was above 95%. Before isolation of monocytes, PDC were depleted by MACS (LD column; Miltenyi Biotec) and then monocytes were isolated using the monocyte isolation kit II (Miltenyi Biotec). […] PDC cultures were additionally supplemented with 10 ng/ml IL-3 (R&D Systems). […] Vero (African green monkey kidney) and HEK 293T (human embryonic kidney) cells were maintained in Dulbecco's modified Eagle's medium supplemented with antibiotics and 5% or 10% foetal calf serum, respectively. BSR cells were propagated in Glasgow minimal essential medium supplemented with 10% newborn calf serum, phosphate broth, amino acids and antibiotics.
Human IFN-α was assessed in cell culture supernatants using the IFN-α module set (Bender MedSystems, Graz, Austria). The murine IP-10 ELISA was from Biosource (Solingen, Germany), the murine IFN-[…] ELISA was from PBL Biomedical Laboratories (Piscataway, USA). All ELISA procedures were performed, according to manufacturers' recommendations.

PBMC = assay: IFN-α induction in the presence of chloroquine; type: cell-based, human
RIG-I [4] = assay: Expression of endogenous RIG-I in B16 cells (western blot); type: cell-based, murine; conditions: 6 hours
Method: (b) To determine the endogenous expression of RIG-I, B16 cells were stimulated with 3p-2.2 (1.2 μg/well) and murine IFN-β (1000 U/ml). After 6 hours cells were lysed and analyzed for endogenous expression of RIG-I by Western Blot. HEK293 cells overexpressing full-length RIG-I served as positive control. One representative experiment of two is shown.
as §2

Molecule: 5′-pppGGGGCUGACCCUGAAGUUCAUCUU-3′ [tri-GFPs]
- IFN-α production in monocytes (human primary monocytes): comparable levels of IFN-α
- IFN-β promoter reporter expression (RIG-I [1]): strongly activated reporter expression

Molecule: 5′-pppGGGGAUGAACUUCAGGGUCAGCUU-3′ ({ppp}-rGrGrGrGrArUrGrArArCrUrUrCrArGrGrGrUrCrArGrCrUrU) [tri-GFPa]
- IFN-α production in monocytes (human primary monocytes): comparable levels of IFN-α
- IFN-β promoter reporter expression (RIG-I [1]): strongly activated reporter expression

Molecule: tri-G-AC-U-Bio: biotinylated 5′ triphosphate oligonucleotide, SEQ ID NO: 349, 3′ terminal biotinylated U (GGGAGACAGGCACCACACACACACACACUUU; RNA, 5' {ppp}, 3' {Biotin}, backbone not given here; biotin attached to the 3'-terminal U)
- pull-down of truncated versions of RIG-I (RIG-I [2]): not very effective at pulling down
- pull-down of full length RIG-I (RIG-I [3]): able to immunoprecipitate full length RIG-I

- IFN-β promoter reporter expression (RIG-I [1]): did not respond
Molecule: Polyinosinic:polycytidylic acid [poly(I:C)]
- cleavage of procaspase-1 (Caspase-1): increased cleavage of procaspase-1 to active subunit p10

Molecule: 5′-pppGGGAGACAGGCACCACACACACACACACUUU-3′ [tri-G-AC-U]
- pull-down of full length RIG-I (RIG-I [3]): did not immunoprecipitate RIG-I

Molecule: 5′-ggGGGACGATCGTCgggggG-3′ [CpG-A ODN 2216, reference compound]
- IFN-α production in monocytes (human primary monocytes): failed to produce IFN-α
- IFN-α production with chloroquine (human primary monocytes; isolated monocytes): inactive
- IFN-α production in PDC (PDC): induce IFN-α in PDC
- effect of increasing concentrations of chloroquine on IFN-α induction (PBMC): inhibited IFN-α induction

Molecule: 5′-OHAGCUUAACCUGUCCUUCAA-3′ [synthetic isRNA9.2s, reference compound]
- IFN-α production in PDC (PDC): produced IFN-α
- IFN-β promoter reporter expression (RIG-I [1]): did not respond

B1: IFN-β: Recombinant murine IFNβ (protein, UniProt P01575 22-182, looked up)
Interferon beta: INYKQLQLQERTNIRKCQELLEQLNGKINLTYRADFKIPMEMTEKMQKSYTAFAIQEMLQNVFLVFRNNFSSTGWNETIVVRLLDELHQQTVFLKTVLEEKQEERLTWEMSSTALHLKSYYWRVQRYLKLMKYNSYAWMVVRAEIFRNFLIIRRLTRNFQN
- RIG-I-expression (RIG-I [4]): strongly upregulated

Reference: patent US9381208B2, “Structure and use of 5′ phosphate oligonucleotides” (Rheinische Friedrich-Wilhelms-Universität, priority 2006, dated 2016)
